Reference: ChEMBL document CHEMBL4321792, “Discovery of 4-Methylquinazoline Based PI3K Inhibitors for the Potential Treatment of Idiopathic Pulmonary Fibrosis” (J Med Chem, 2019)
pIC50: −log10 of the molar value.

Tests used:
[1] = Antifibrotic activity against mouse Mlg2908 cells assessed as reduction in cell viability measured after 72 hrs by MTT assay; assay type: functional, cell-based
[2] = Apparent permeability across apical to basolateral side in human Caco2 cells measured after 90 mins by LC-MS/MS analysis; settings: Caco-2
[3] = Apparent permeability across basolateral to apical side in human Caco2 cells measured after 90 mins by LC-MS/MS analysis; settings: Caco-2
[4] = target: PI3-kinase p110-alpha/p85-alpha (Homo sapiens, UniProt P42336); assay: Inhibition of recombinant human N-terminal FLAG-tagged full-length p110alpha/human p85alpha expressed in Sf9 insect cells using PIP2 as substrate by kinase-glo assay
Chain of PI3-kinase p110-alpha/p85-alpha (P27986 whole entry): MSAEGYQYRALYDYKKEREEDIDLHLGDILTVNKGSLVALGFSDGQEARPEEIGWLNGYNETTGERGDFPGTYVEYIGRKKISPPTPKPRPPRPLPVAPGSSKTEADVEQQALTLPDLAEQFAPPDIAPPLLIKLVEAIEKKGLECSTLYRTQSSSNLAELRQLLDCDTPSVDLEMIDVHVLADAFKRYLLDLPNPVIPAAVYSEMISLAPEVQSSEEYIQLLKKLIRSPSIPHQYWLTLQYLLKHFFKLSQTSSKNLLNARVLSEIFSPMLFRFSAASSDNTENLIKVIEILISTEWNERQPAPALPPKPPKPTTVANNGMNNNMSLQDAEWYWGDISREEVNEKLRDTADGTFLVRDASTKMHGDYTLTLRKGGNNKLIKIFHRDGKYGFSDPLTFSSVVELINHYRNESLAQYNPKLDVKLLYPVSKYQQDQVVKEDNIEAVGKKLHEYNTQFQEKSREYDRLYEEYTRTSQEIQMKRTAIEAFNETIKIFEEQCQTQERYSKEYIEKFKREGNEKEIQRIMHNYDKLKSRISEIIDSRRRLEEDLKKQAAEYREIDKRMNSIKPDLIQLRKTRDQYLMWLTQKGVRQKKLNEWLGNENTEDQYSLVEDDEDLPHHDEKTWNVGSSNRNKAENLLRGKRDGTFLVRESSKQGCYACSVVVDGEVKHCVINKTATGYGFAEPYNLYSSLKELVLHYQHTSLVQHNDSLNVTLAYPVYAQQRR
Chain of PI3-kinase p110-alpha/p85-alpha (P42336 whole entry): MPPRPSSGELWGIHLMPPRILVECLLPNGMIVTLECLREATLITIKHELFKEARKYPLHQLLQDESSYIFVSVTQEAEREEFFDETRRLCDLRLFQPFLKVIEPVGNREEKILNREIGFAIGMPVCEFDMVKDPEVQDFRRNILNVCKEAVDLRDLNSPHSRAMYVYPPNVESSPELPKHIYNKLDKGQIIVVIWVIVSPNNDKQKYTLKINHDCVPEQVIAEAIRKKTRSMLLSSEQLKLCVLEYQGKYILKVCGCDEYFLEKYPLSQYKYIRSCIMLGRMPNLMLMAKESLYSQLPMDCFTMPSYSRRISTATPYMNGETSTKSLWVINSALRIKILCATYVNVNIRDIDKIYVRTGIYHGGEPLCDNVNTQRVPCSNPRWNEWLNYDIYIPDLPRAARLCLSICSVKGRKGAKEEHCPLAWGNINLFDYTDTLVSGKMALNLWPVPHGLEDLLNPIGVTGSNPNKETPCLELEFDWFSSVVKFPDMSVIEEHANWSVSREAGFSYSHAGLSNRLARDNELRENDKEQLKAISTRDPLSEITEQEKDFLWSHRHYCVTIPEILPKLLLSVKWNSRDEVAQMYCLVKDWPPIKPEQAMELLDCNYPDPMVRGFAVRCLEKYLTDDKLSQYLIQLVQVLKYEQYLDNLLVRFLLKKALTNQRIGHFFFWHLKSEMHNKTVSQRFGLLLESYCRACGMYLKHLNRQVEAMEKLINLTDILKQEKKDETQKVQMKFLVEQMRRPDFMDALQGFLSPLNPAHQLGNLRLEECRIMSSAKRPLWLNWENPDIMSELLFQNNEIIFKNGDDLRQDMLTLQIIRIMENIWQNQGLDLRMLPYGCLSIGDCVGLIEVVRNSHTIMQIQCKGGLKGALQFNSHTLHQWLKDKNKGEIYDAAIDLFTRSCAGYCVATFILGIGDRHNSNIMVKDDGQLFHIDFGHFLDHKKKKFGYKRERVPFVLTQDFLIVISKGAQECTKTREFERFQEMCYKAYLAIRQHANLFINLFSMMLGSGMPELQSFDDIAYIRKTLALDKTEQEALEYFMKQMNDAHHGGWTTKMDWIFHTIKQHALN

Papp A→B at 1.5 h [2] | Papp B→A at 1.5 h [3] | pIC50 [4] | Structure (SMILES) | pIC50 [1]
– | – | – | Cc1nc(NC(=O)N2CCC[C@H]2C(N)=O)sc1-c1ccnc(C(C)(C)C(F)(F)F)c1 [ALPELISIB] | 5.46
– | – | – | Cc1c(Cn2c(C)nc3c(C(=O)O)cc(N4CCOCC4)cc32)cccc1C(F)(F)F [GSK-2636771] | < 4.70
35 ×10⁻⁶ cm/s | 31 ×10⁻⁶ cm/s | 8.92 | COc1ncc(-c2cc(OC)c3ncnc(C)c3c2)cc1NS(=O)(=O)c1ccc(F)cc1F | 6.89
– | – | – | COc1ncc(-c2cc(OC3CCOCC3)c3nc(N)nc(C)c3c2)cc1NS(=O)(=O)c1ccc(F)cc1F | 6.85
31 ×10⁻⁶ cm/s | 33 ×10⁻⁶ cm/s | 9.04 | COc1ncc(-c2cc(OCC3CCOCC3)c3ncnc(C)c3c2)cc1NS(=O)(=O)c1ccc(F)cc1F | 8.10
34 ×10⁻⁶ cm/s | 17 ×10⁻⁶ cm/s | 8.77 | COc1ncc(-c2cc(OC(F)F)c3ncnc(C)c3c2)cc1NS(=O)(=O)c1ccc(F)cc1F | 6.89
30 ×10⁻⁶ cm/s | 23 ×10⁻⁶ cm/s | 8.82 | COc1ncc(-c2cc(OCC3CC3)c3ncnc(C)c3c2)cc1NS(=O)(=O)c1ccc(F)cc1F | 7.70
8.8 ×10⁻⁶ cm/s | 38 ×10⁻⁶ cm/s | 8.80 | COc1ncc(-c2cc(OCC3CCN(C)CC3)c3ncnc(C)c3c2)cc1NS(=O)(=O)c1ccc(F)cc1F | 7.09
– | – | – | COc1ncc(-c2ccc3nccc(-c4ccnnc4)c3c2)cc1NS(=O)(=O)c1ccc(F)cc1F [OMIPALISIB] | 8.40
32 ×10⁻⁶ cm/s | 22 ×10⁻⁶ cm/s | 8.70 | COc1ncc(-c2cc(OC(C)C)c3ncnc(C)c3c2)cc1NS(=O)(=O)c1ccc(F)cc1F | 7.89
34 ×10⁻⁶ cm/s | 39 ×10⁻⁶ cm/s | 9.02 | COc1ncc(-c2cc(OCC3CCOC3)c3ncnc(C)c3c2)cc1NS(=O)(=O)c1ccc(F)cc1F (configuration not stated) | 8.40
39 ×10⁻⁶ cm/s | 31 ×10⁻⁶ cm/s | 7.51 | COc1ccc(-c2cc(OC3CCOCC3)c3ncnc(C)c3c2)cn1 | 4.77
28 ×10⁻⁶ cm/s | 17 ×10⁻⁶ cm/s | 9.00 | COc1ncc(-c2cc(OC3CCCC3)c3ncnc(C)c3c2)cc1NS(=O)(=O)c1ccc(F)cc1F | 7.82
– | – | – | CC[C@H](Nc1ncnc2[nH]cnc12)c1nc2cccc(F)c2c(=O)n1-c1ccccc1 [IDELALISIB] | < 4.70
13 ×10⁻⁶ cm/s | 33 ×10⁻⁶ cm/s | 8.64 | COc1ncc(-c2cc(OCCN3CCOCC3)c3ncnc(C)c3c2)cc1NS(=O)(=O)c1ccc(F)cc1F | 6.68
– | – | – | C[C@H](NC(=O)c1c(N)nn2cccnc12)c1cc2cccc(C#Cc3cnn(C)c3)c2c(=O)n1-c1ccccc1 [EGANELISIB] | 6.01
7.5 ×10⁻⁶ cm/s | 38 ×10⁻⁶ cm/s | 8.17 | COc1ncc(-c2cc(OCCN3CCCC3)c3ncnc(C)c3c2)cc1NS(=O)(=O)c1ccc(F)cc1F | 5.89
4.5 ×10⁻⁶ cm/s | 46 ×10⁻⁶ cm/s | 8.68 | COc1ncc(-c2cc(OC3CCN(C)CC3)c3ncnc(C)c3c2)cc1NS(=O)(=O)c1ccc(F)cc1F | 6.64
16 ×10⁻⁶ cm/s | 21 ×10⁻⁶ cm/s | 8.82 | COc1ncc(-c2cc(OC3CCCCC3)c3ncnc(C)c3c2)cc1NS(=O)(=O)c1ccc(F)cc1F | 7.48
– | – | – | C[C@H](Nc1ncnc2nc[nH]c12)c1cc2cccc(Cl)c2c(=O)n1-c1ccccc1 [DUVELISIB] | 5.16
31 ×10⁻⁶ cm/s | 22 ×10⁻⁶ cm/s | 9.05 | COc1ncc(-c2cc(OC3CCOC(C)(C)C3)c3ncnc(C)c3c2)cc1NS(=O)(=O)c1ccc(F)cc1F (configuration not stated) | 8.70
10 ×10⁻⁶ cm/s | 51 ×10⁻⁶ cm/s | 8.28 | COc1ncc(-c2cc(OCCN(C)C)c3ncnc(C)c3c2)cc1NS(=O)(=O)c1ccc(F)cc1F | 6.34
